The values below come from PMC10059066, “Probing Serum Albumins and Cyclodextrins as Binders of the Mycotoxin Metabolites Alternariol-3-Glucoside, Alternariol-9-Monomethylether-3-Glucoside, and Zearalenone-14-Glucuronide” (Metabolites, 2023).

Test [1] can be described thus: Fluorescence spectroscopic study of mycotoxin-SGD complex formation. Type of test: binding. Particulars: for SGD logK ± SEM (binding constant): Benesi–Hildebrand, 0.05 M sodium acetate pH 5.0, mycotoxin 1 μM, n = 3; for SGD-induced increase in the emission signal of the mycotoxin: SGD 0–5 mM, mycotoxin 1 μM, sodium acetate pH 5.0. How it is done: The impacts of SBECD (0–10 mM) and SGD (0–5 mM) on the emission signals of mycotoxins (1 μM each) were tested in sodium acetate buffer (0.05 M, pH 5.0). Mycotoxin–CD interactions were evaluated using the Benesi–Hildebrand equation [11, 31], assuming 1:1 stoichiometry of complex formation:(2) F0/F−F0=1/A+1/A×K×[CD] where K (L/mol) is the binding constant, F0 is the emission signal of the mycotoxin without the host molecules, F is the emission signal of the mycotoxin with CDs, A is a constant, and [CD] is the molar concentration (mol/L) of the host molecules.
Therefore, CD-induced elevation in the fluorescence emission intensities of mycotoxins was examined.
Based on the emission signals at 455 nm, the binding constants of ligand–CD complexes were calculated using the Benesi–Hildebrand equation (Equation (2)). Background corrections were performed in each experiment. […] Glucose and glucuronic acid are bulky, hydrophilic molecules; therefore, it is reasonable to hypothesize that these substituents make the inclusion of AG, AMG, and Z14Glr by the apolar CD cavity difficult.

Test [2] deals with T1, human serum albumin (HSA) (Homo sapiens, UniProt P02768).
T1 construct: purchased Merck (Darmstadt, Germany)
Kind of test: Ultracentrifugation study of mycotoxin-HSA binding. As for the experimental part:
To confirm the data calculated based on fluorescence quenching studies, ultracentrifugation experiments were also performed. With the proper conditions of ultracentrifugation, albumin (with the bound ligands) can be sedimented. The samples (final volume: 500 μL) contained AG, AMG, or Z14Glr (5 μM each) with HSA (60 or 180 μM) dissolved in PBS. Centrifugation (16 h, 170,000× g, 20 °C) was performed using 11 × 34 mm PC tubes (Beckman Coulter, Brea, CA, US) and a Beckman Coulter Optima MAX-XP tabletop ultracentrifuge (fixed-angle rotor). The unbound fractions of mycotoxins were determined in the protein-free supernatant by HPLC-FLD (see details in Section 2.5), as previously reported. (3) K=[LA]/L×[A] where [L], [A], and [LA] are the concentrations (mol/L) of the ligand (unbound), albumin (unbound), and the ligand–albumin complex, respectively.
Furthermore, to test the impact of environmental pH on the stability of mycotoxin–albumin complexes, the abovementioned experiments were also performed in 0.05 M sodium acetate (pH 5.0) and 0.05 M sodium borate (pH 8.5) buffers.
To confirm the binding constants determined in the quenching experiments, and to get insight into the interaction of Z14Glr with HSA, ultracentrifugation studies were also performed. In these investigations, albumins (with the ligands bound) were sedimented, and then the concentrations of the unbound mycotoxins were quantified from the supernatants.

A short description of test [3]: Extraction of mycotoxins from aqueous solutions with γ-cyclodextrin bead polymer. Particulars: GBP 0–10 mg/mL, mycotoxin 5 μM, sodium acetate buffer pH 5.0. As for the experimental part: The extraction of mycotoxins by insoluble (but water-swellable) CD bead polymers was tested in 0.05 M sodium acetate (pH 5.0) and 0.05 M sodium borate (pH 10.0) buffers. AG, AMG, alternariol, Z14Glr, and zearalenone solutions (5 μM each) were incubated with increasing amounts (0–10 mg/mL) of BBP or GBP in a thermomixer for 40 min at 1000 rpm and 25 °C. After pulse centrifugation (5000× g, 3 s), the mycotoxin contents of the supernatants were analyzed by HPLC-FLD (see Section 2.5).
The quantitative analyses of the examined mycotoxins were performed with a Jasco HPLC system (Tokyo, Japan) equipped with a binary pump (PU-4180), an autosampler (AS 4050), and a fluorescence detector (FP-920). Chromatograms were evaluated using the ChromNAV2 software (Jasco). Alternariol and zearalenone were analyzed as described previously. During the validation of our new HPLC-FLD methods, the linearity (LIN), limit of detection (LOD), limit of quantification (LOQ), and intraday repeatability (IDR) were determined as described previously.
AG and AMG were quantified using the following method: Isocratic elution of the samples (20 μL) was performed at room temperature with a 1 mL/min flow rate, employing phosphoric acid (1 mM) and acetonitrile (65:35 v/v%) as the mobile phase, where a Security Guard (C18, 4.0 × 3.0 mm; Phenomenex, Torrance, CA, US) precolumn was linked to a Kinetex EVO C18 (250 × 4.6 mm, 5 μm; Phenomenex) analytical column. Chromatograms were recorded, applying 335 nm and 455 nm excitation and emission wavelengths, respectively. […]
Z14Glr was quantified using the following method: Isocratic elution of the samples (20 μL) was performed at room temperature with a 1 mL/min flow rate, employing 1% acetic acid solution and acetonitrile (65:35 v/v%) as the mobile phase, where a Security Guard (C8, 4.0 × 3.0 mm; Phenomenex) precolumn was linked to a Mediterranea See8 (C8, 150 × 4.6 mm, 5 μm; Teknokroma, Barcelona, Spain) analytical column. Chromatograms were recorded, applying 315 nm and 465 nm excitation and emission wavelengths, respectively. […]

[4] abbreviates: 0.05 M sodium acetate pH 5.0, mycotoxin 5 μM, n = 3, read-out: HSA pH 5.0 logK ± SEM (binding constant) (converted).
Where [5] appears, read: 0.05 M sodium borate pH 8.5, mycotoxin 5 μM, n = 3, read-out: HSA pH 8.5 logK ± SEM (binding constant) (converted).
Where [6] appears, read: PBS pH 7.4, mycotoxin 5 μM, n = 3, read-out: HSA pH 7.4 logK ± SEM (binding constant) (converted).

Values joined by “and” are separate entries in the source; they are usually repeats but may differ in a detail not shown here. Equal entries are not always repeated. Where two headings read alike, the source gives them in different places.

T1 sequence (P02768 25-609): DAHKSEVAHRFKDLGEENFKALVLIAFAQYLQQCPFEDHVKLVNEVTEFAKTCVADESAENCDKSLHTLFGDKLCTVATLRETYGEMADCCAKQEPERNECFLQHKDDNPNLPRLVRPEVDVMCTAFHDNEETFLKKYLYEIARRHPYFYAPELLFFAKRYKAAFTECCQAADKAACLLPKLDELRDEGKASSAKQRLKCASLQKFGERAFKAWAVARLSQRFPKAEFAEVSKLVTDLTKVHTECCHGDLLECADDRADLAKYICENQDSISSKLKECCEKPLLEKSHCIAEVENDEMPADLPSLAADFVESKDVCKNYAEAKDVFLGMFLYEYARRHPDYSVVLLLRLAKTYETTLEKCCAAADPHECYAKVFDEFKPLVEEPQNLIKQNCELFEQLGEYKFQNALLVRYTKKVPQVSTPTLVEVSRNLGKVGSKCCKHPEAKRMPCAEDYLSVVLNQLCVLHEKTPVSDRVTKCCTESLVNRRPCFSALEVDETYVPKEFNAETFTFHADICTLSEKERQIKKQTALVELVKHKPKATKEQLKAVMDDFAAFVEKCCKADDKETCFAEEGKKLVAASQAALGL

Take `Cc1cc(OC2O[C@H](CO)[C@@H](O)[C@H](O)[C@H]2O)cc2oc(=O)c3c(O)cc(O)cc3c12` (stereo partly drawn) [AG, alternariol-3-glucoside]: the “SGD logK ± SEM (binding constant)” value in test [1] is listed as 3.19 ± 0.08 L/mol. The “SGD-induced increase in the emission signal of the mycotoxin” value (shortened to “SGD-induced increase”) in test [1] is listed as “approximately sevenfold increase”. The Kd in test [2] (setting [4]) was 33.1 µM; in test [2] (setting [5]), 39.8 µM; in test [2] (setting [6]) it was 57.5 µM. Further, the “removal of mycotoxin by GBP” value in test [3] is on record as “strongly reduced”.

For `COc1cc(O)c2c(=O)oc3cc(OC4O[C@H](CO)[C@@H](O)[C@H](O)[C@H]4O)cc(C)c3c2c1` (stereo partly drawn) [AMG, alternariol-9-monomethylether-3-glucoside], in test [1], the “SGD logK ± SEM (binding constant)” value was determined as 3.45 ± 0.04 L/mol. The “SGD-induced increase” value in test [1] is “approximately sevenfold increase”. In addition, in test [2], the “affinity toward HSA at pH 8.5 relative to pH 5.0” value is given as “approximately 17 fold”. The Kd in test [2] (setting [4]) is 151 µM; in test [2] (setting [5]), 8.91 µM; in test [2] (setting [6]), 79.4 µM and 77.6 µM. Moreover, the “removal of mycotoxin by GBP” value in test [3] was “strongly reduced”.

Regarding `C[C@H]1CCCC(=O)CCC/C=C/c2cc(O[C@@H]3OC(C(=O)O)[C@@H](O)C(O)C3O)cc(O)c2C(=O)O1` (stereo partly drawn) [Z14Glr, zearalenone-14-β,D-glucuronide], the “SGD-induced increase” value in test [1] was “fivefold”. Besides, the Kd in test [2] (setting [4]) was 25.7 µM; in test [2] (setting [5]), 58.9 µM; in test [2] (setting [6]) it was 63.1 µM and 60.3 µM. In addition, the “removal of mycotoxin by GBP” value in test [3] is “only moderate removal”.
